Read-outs that look alike come from different tables or passages of the source.
What was measured:
P. vivax liver schizonts = experiment: microbe, parasite or virus in culture; assay type: cell-based, Plasmodium vivax
in vitro [1] = settings: human
P. vivax hypnozoites = experiment: microbe, parasite or virus in culture; assay type: cell-based, Plasmodium vivax
in vitro [2] = settings: human; remark: listed apart in the source
[3] = system: P. falciparum (strain W2) asexual blood stage parasites; experiment: microbe, parasite or virus in culture; assay type: cell-based, Plasmodium falciparum
[4] = system: primary human hepatocytes
[5] = Plasmodium vivax, Hepatocyte, 288 h, read-out: P. vivax schizont EC50
[6] = Plasmodium vivax, read-out: P. vivax schizont pEC50 (converted)
[7] = Plasmodium vivax, Hepatocyte, 288 h, read-out: P. vivax hypnozoite EC50
[8] = Plasmodium vivax, read-out: P. vivax hypnozoite pEC50 (converted)

In the case of `COc1ccc(C[C@H](N)C(=O)N[C@H]2[C@@H](O)[C@H](n3cnc4c(N(C)C)ncnc43)O[C@@H]2CO)cc1` [puromycin], the EC50 (P. vivax liver schizonts; [5]) is reported as 2290 nM, the EC50 (P. vivax liver schizonts; [6]) is reported as 2290 nM and the CC50 (in vitro [1]; PHH Tox CC50) is reported as 1740 nM. For the same compound, the CC50 (in vitro [1]; PHH Tox pCC50) was 1740 nM, the EC50 (P. vivax hypnozoites; [7]) was 776 nM and the EC50 (P. vivax hypnozoites; [8]) was 776 nM. For the same compound, the CC50 (in vitro [2]; HepG2 Tox CC50) was 398 nM and the CC50 (in vitro [2]; HepG2 Tox pCC50) was 398 nM.

In the case of `C[C@H]1[C@@H](O)O[C@@H]2O[C@@]3(C)CC[C@H]4[C@H](C)CC[C@@H]1[C@@]24OO3` [dihydroartemisinin], the EC50 ([3]; Plasmodium falciparum, W2, 72 h, read-out: P. falciparum ABS (W2) EC50) is reported as 1.44 nM and the EC50 ([3]; Plasmodium falciparum, W2, 72 h, read-out: P. falciparum ABS (W2) pEC50 (converted)) is reported as 1.45 nM.

With `CO[C@@H]1C[C@@H](C[C@H]2CC[C@H](C)[C@H]([C@@H](C)C(=O)O)O2)O[C@]2(O[C@](C)([C@H]3CC[C@@](C)([C@@H]4O[C@@H]([C@H]5O[C@@](O)(CO)[C@H](C)C[C@@H]5C)C[C@@H]4C)O3)C[C@H]2C)[C@@H]1C` [nigericin] the EC50 (P. vivax liver schizonts; [5]) was 5.13 nM, the EC50 (P. vivax liver schizonts; [6]) was 5.13 nM and the CC50 (in vitro [1]; PHH Tox CC50) was > 200 nM. The EC50 (P. vivax hypnozoites; [7]) was 12.3 nM, the EC50 (P. vivax hypnozoites; [8]) was 12.3 nM and the “PHH Tox pCC50” value ([4]; human) was >200 (6.70 ± 0.00).

With `CC(=O)OC[C@]12CCC(C)=C[C@H]1O[C@@H]1[C@H](O)[C@@H](OC(C)=O)[C@@]2(C)[C@]12CO2` [anguidine, diacetoxyscirpenol] the EC50 (P. vivax liver schizonts; read-out: P. vivax schizont EC50) was 13.5 nM, the EC50 ([3]; read-out: P. falciparum ABS (W2) EC50) was 6.16 nM and the “P. vivax hypnozoite pEC50” value (P. vivax hypnozoites) was 36.3 (7.44 ± 0.75). The EC50 (P. vivax hypnozoites; read-out: P. vivax hypnozoite EC50) was 36.3 nM, the “PHH Tox pCC50” value [4] was 380 (6.42 ± 0.31) and the CC50 ([4]; read-out: PHH Tox CC50) was 380 nM. For the same compound, the “HepG2 Tox pCC50” value (HepG2 cells) was 27.5 (7.56 ± 0.08), the “cytotoxicity (in words)” value (HepG2 cells) was “cytotoxic” and the CC50 (HepG2 cells; read-out: HepG2 Tox CC50) was 27.5 nM.
